Read-outs that look alike come from different tables or passages of the source.
What was measured:
[1] = cited from earlier work
[2] = tested on: Drosophila melanogaster w1118; settings: in vivo
Method: FIGS. 11A-C. […] WT Eggs from 3 day Br-depleted and Br-Added females were collected and transferred to new 35 mm culture dishes filled with 3 ml of vitamin and mineral spiked phytagel as the semi-solid support. 100 μL of Yeast paste±100 μM Br—(200 mg yeast/500 μL ddH2O) was added to the center of each dish. Larvae were transferred to fresh dishes and counted every 24-36 hours. WT flies were reared in the presence of 80 mM total Br-Free NaCl. For Br-Added conditions, both the phytagel and yeast paste were spiked with 100 μM NaBr to ensure constant and consistent exposure. Adults were fed identical food as part of the depletion regime. PxnF07229 homozygous larvae were separated from heterozygous larvae and collected 48 hours after hatching on a Br-Free vs Br-Added plates from parents fed a standard diet. After transfer to these fresh Br-experimental diet plates, they were transferred and counted similarly to the WT larvae under normal 20 mM NaCl conditions. The experimental cohorts [Br-Free (n=34), Br-Added (n=40), Br-Free PxnF07229 (n=14), and Br-Added PxnF07229 (n=19)] were followed until death or 2-days after eclosion of the last fly in the cohort. […] Scale bars in the insets represent 200 μm, and in the whole pictures 500 μm. The image of PxnF07229 larvae is from a Br-Added experimental diet. (FIG. 11C) Representative pictures of the corresponding gut dissections to FIG. 11B. Scale bars are 500 μm.
(FIG. 17A) Generational Br-depletion scheme (FIG. 17B). Generation 1 survival and time-to-development curves for w^1118 flies on the standard diet vs experimental diets. Embryos from mothers fed a standard diet were placed on the indicated diet, and progeny were scored every 24 hours. […] Data plotted as the group median±interquartile range. N=30 for each group. […] (FIG. 17C) Generation 2 developmental survival on experimental diets. n>40 for each cohort. Tested by Log-Rank test. (FIG. 17D) Percentage of eggs (mean+/−95% C.I.) completing embryogenesis from mothers reared on Br-free^DEP or Br-added^DEP diets for […]. In the Br-free^DEP experimental group, mothers were fed Br-free synthetic diet containing 80 mM total NaCl (Br-free^DEP) for 3 days prior to egg collection. The Br-added^DEP was treated in the same manner except that 100 μM NaBr was added to all food components of the Br-free^DEP synthetic diet. […] Analyzed by the Mann-Whitney U test. (FIG. 17E) Survival curve for w^1118 flies under Br-free^DEP or Br-added^DEP dietary conditions. […] Associated larval Br-content was measured by EINAA. Bonds/hexamer were calculated from the Western blot. […] BMs from 15 independent sections for each group were evaluated for thickness and the histograms plotted. […]

Method for PFHR-9 cells: (FIG. 10A) The murine PFHR-9 cell-culture model of basement membranes was cultured for 7 days in the presence of either commercial DMEM+5% FBS or adapted Br-Free DMEM +5% FBS dialyzed against Br-Free HBSS. Media was changed every 24 hours with the addition of 50 μg/ml ascorbic acid and NaBr added where noted. The cell deposited matrix was harvested, collagenase digested, and subjected to SDS-PAGE. NC1 crosslinking content is graphed as the mean±95% C.I. (n=3) with a representative gel depicted.
Bromine was systematically eliminated from DMEM by making the media from individual components without chloride counter ions, and using Br-Free chloride as the only halide source.

In the case of `Br` [bromide], the “S═N crosslinking in the collagen IV matrix” value (PFHR-9 cells) is listed as “rescued physiologic levels of crosslinking”, the “cell proliferation, viability, collagen IV synthesis” value (PFHR-9 cells) is listed as “no observable difference in cell proliferation, viability, or collagen IV synthesis” and the “bromide level at which Bromism occurs” value ([1]; in vivo) is listed as > 12 mmol/L. For the same compound, the “half-life in the human body” value ([1]; in vivo) was 12 days, the “serum bromide level at which toxicity (bromism) occurs” value [1] was ~12 mM and the “serum bromide level at which toxicity (bromism) occurs” value ([1]; listed as Br^−) was > 12 mM. For the same compound, the “Generation 2 larval survival” value [2] was “rescued”, the “developmental progression of PxnF07229 larvae” value [2] was “unable to promote developmental progression” and the “median time to eclosion” value [2] was 10 days. For the same compound, the “median time to pupariation” value [2] was 6 days.

From US10183039B2, “Methods for the production of collagen IV” (Vanderbilt University, priority 2013, dated 2019)
